Measurements from PubChem BioAssay AID179 (DTP/NCI, 2004).
Where “and” joins values, the source holds several entries; their conditions need not be identical. Equal values may be shown once. Calls of active or inactive are those of the source.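 The calls were made as follows: active = compounds giving half or more protection of infected cells from virus-caused growth loss, again on retest; inactive = the rest.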 Where a SMILES comes first, the peptide text is derived from it.

Tested on: CEM cells HIV-1 protection, formazan growth assay
Assay: NCI AIDS Antiviral Assay
Details: for IC50: measured here: growth of uninfected CEM cells
Outline: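 Human CEM cells, uninfected and HIV-1-infected, exposed to five drug concentrations; growth measured by soluble formazan assay and scored as percent protection from infection, with protecting compounds retested.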

Row | SMILES | EC50 | IC50 | outcome
1 | CCOC(=O)N1CCC2(CC1)C[C@@](C(C)=O)(c1ccccc1)C(C)O2 (stereo partly drawn) | > 200 µM | > 200 µM | 
2 | CCOC(=O)C(C)(C)Oc1ccc(N=[N+]=[N-])cc1 | > 200 µM | > 200 µM | 
3 | CC1=C(/C=C/C(C)=C/C=C/C(C)=C/C(=O)O)C(C)(C)CCC1 |  |  | inactive
4 | CC(C)[C@@H]1OC(=O)[C@@H](C)NC(=O)[C@@H]2CCCN2C1=O (HELM PEPTIDE1{[CC(C)[C@H](O[*:1])C(=O)[*:2]].P.[dA]}$PEPTIDE1,PEPTIDE1,1:R1-3:R2$$$V2.0) | > 200 µM | > 200 µM | 
5 | Cc1cc2nc3n[nH]c(N)c3nc2cc1C | > 200 µM | > 200 µM | 
6 | O=[N+]([O-])c1cccc2nc3ccccc3c(NCCCn3ccnc3[N+](=O)[O-])c12 | > 0.2 µM | 0.0457 µM | 
7 | [N-]=[N+]=Nc1cc(=O)[nH]c2ccccc12 | > 200 µM | > 200 µM | 
8 | CCOC(=O)C1C(=O)CC(O)(OCC)C(C(=O)OCC)C1c1ccc(OC)cc1 (stereo not drawn) | > 200 µM | > 200 µM | 
9 | CC(=N)N(C)O | > 2000 µM | > 2000 µM | 
10 | Cc1nnc(Sc2nc(C#N)c(C#N)nc2Sc2nnc(C)s2)s1 | > 200 µM | 8.13 µM | 
11 | Nc1nc(N)c2c(-c3ccccc3)ccnc2n1 | > 195 µM | 162 µM | 
12 | O=C(NCCCN1CC2CCCC2C1)C(c1ccccc1)c1ccccc1 (stereo not drawn) | > 200 µM | 39.8 µM | 
13 | O=C1OC(Cl)C(N=P(c2ccccc2)(c2ccccc2)c2ccccc2)=C1Cl (stereo not drawn) | > 12.3 µM | 9.33 µM | 
14 | Cc1ccc(NC(=S)Nc2ccc(C)cn2)nc1 | > 200 µM | > 200 µM | 
15 | Cc1ccc(S(=O)(=O)N/N=C2\C3CC4CC(C3)C2C4)cc1 (stereo not drawn) | > 200 µM | 95.5 µM | 
16 | CC(C)(C)C(=O)O[C@@H]1COC2C(O)COC21 (stereo partly drawn) | > 1070 µM | 977 µM | 
17 | O=C1c2ccccc2-c2nnc(-c3ccccc3)cc21 | > 100 µM | 8.32 µM | 
18 | Cc1cc(C)c(C(=O)c2c(C)ccc(C)c2C(=O)O)c(C)c1 | > 200 µM | > 200 µM | 
19 | [N-]=[N+]=Nc1c(Br)c(=O)[nH]c(=O)n1COCCO |  |  | inactive
20 | CCCCCCCC/C=C\CCCCCCCC(=O)N(C)N(C)C(=O)CCCCCCC/C=C/CCCCCCCC | > 200 µM | > 200 µM | 
21 | O=C(O)c1ccc(-c2c3ccc(=O)cc-3oc3cc(O)ccc23)cc1 | > 200 µM | 107 µM | 
22 | COc1ccccc1NC(=O)CC(=O)N1N=C(c2ccccc2)C(N=Nc2ccc(Cl)cc2)C1=O (stereo not drawn) | > 74.1 µM | 64.6 µM | 

Row | SMILES | EC50 | IC50 | outcome
23 | CCC[CH2][Sn]1([CH2]CCC)[O]C(c2ccccn2)S(=O)(=O)[O]1 (stereo not drawn) | > 30.9 µM | 0.178 µM | 
24 | NC(=O)C(=Cn1c(=S)[nH]c2ccc([N+](=O)[O-])cc21)C(N)=O | > 200 µM | > 200 µM | 
25 | CCCCOC(=O)C(=O)/C(=C\n1c(=S)[nH]c2ccccc21)C(=O)C=C(C)C | > 200 µM |  | 
26 | C1=C(c2ccccc2)N2CCCNC2(c2ccccc2)CS1 (stereo not drawn) | > 200 µM | 132 µM | 
27 | CCCCN(CCCC)CC(N=O)c1cc(-c2ccc(Cl)c(Cl)c2)nc2c(Cl)cc(Cl)cc12 (stereo not drawn) |  |  | inactive
28 | C[C@]12CCC(=O)C(OC(=O)c3ccc([N+](=O)[O-])cc3)=C1CCC2=O |  |  | inactive
29 | CCOC(=O)/C(=C\c1ccc(OC)cc1)[Se]c1ccccc1 | > 20 µM | > 20 µM | 
30 | C(=Nc1ccc(-c2cc(-c3ccccc3)nc3ccc4ccccc4c23)cc1)c1ccccc1 | > 200 µM | 31.6 µM | 
31 | COC(=O)c1cc(C(=CCC23CC4CC(CC(C4)C2)C3)c2cc(Cl)c(OC)c(C(=O)OC)c2)cc(Cl)c1OC | > 17.4 µM | > 17.4 µM | 
32 | CCCCNC=C1C(=O)Nc2ccccc2NC1=O | > 200 µM | > 200 µM | 
33 | CCOC(=O)CC1(CC(=O)OCC)C(=O)N(C)c2ccccc21 | > 200 µM | > 200 µM | 
34 | CC(C)(N)Cc1ccccc1Cl | > 200 µM | > 200 µM | 
35 | CC(=O)OC/C=C(/C)C[P+](c1ccccc1)(c1ccccc1)c1ccccc1 | > 200 µM | 0.955 µM | 
36 | CCOc1ccc(N2CC(=O)N3CCCCN3C(=O)C2)cc1 | > 200 µM | > 200 µM | 
37 | Cc1ccc(S(=O)(=O)OC2=C/C(=N\c3onc(C)c3C)c3ccccc3C2=O)cc1 | > 200 µM | 3.09 µM | 
38 | CC1=N/C(=C\c2cccc(Br)c2)C(=O)O1 | > 97.7 µM | 66.1 µM | 
39 | CN(CC(O)C(O)C(O)C(O)CO)CN1C(=O)C(=O)c2ccccc21 (stereo not drawn) | > 200 µM | 34.7 µM | 
40 | O=C(/C=C/c1ccc(Cl)cc1)c1ccc(Cl)s1 | > 200 µM |  | 
41 | CCN(CC)CCNc1ccc([N+](=O)[O-])c2nc3ccc(OC)cc3c(NCCN(CC)CC)c12 | > 100 µM | 0.178 µM | 
42 | O=c1[nH]nc2c3n[nH]c(=O)n3c3ccccc3n12 | > 14.8 µM | > 14.8 µM | 
43 | C=CCCCN(C(=O)c1ccccc1)c1ccc(C(=O)OC)o1 | > 200 µM | 50.1 µM | 
44 | CC(C)(C)C(=O)Nc1ccccc1C(=O)C12CCC3(CCOCc4ccccc4)C=CCN(C(=O)O1)C32 (stereo not drawn) | 15.5 µM | 42.7 µM | 

Row | SMILES | EC50 | IC50 | outcome
45 | C/C=C/COc1cc(NC(=S)c2ccoc2C)ccc1OC | 0.813 µM | 1.62 µM | 
46 | Nc1nc(Nc2ccccc2)sc1O | > 200 µM | 195 µM | 
47 | CCOC(=O)Cc1csc2nc(-c3ccccc3)nn12 | > 200 µM | 132 µM | 
48 | CCOC(=O)/C(SC#N)=C(/N)N1CCCC1 | > 200 µM | > 200 µM | 
49 | Clc1ccc(C[P+](c2ccccc2)(c2ccccc2)c2ccccc2)cc1Cl | > 200 µM | 3.02 µM | 
50 | COC1/C=C/OC2(C)Oc3c(C)c(O)c4c(c3C2=O)C(=O)C=C(NC(=O)/C(C)=C\C=C\C(C)C(OC=O)C(C)C(O)C(C)C(OC(C)=O)C1C)C4=O (stereo not drawn) | > 200 µM | 7.41 µM | 
51 | Fc1ccc(N2C(=S)SC(=Nc3ccccc3)C2=Nc2ccccc2)cc1 | > 200 µM | 23.4 µM | 
52 | COc1ccc(-c2nc(-c3cc4ccccc4oc3=O)cs2)cc1 | > 100 µM | > 100 µM | 
53 | CCOP(=O)(CCn1cc(C)c(=O)[nH]c1=O)OCC | > 871 µM | > 871 µM | 
54 | Cc1cccc(C)c1Nc1nc(C)c(C(=O)CC(=O)C(=O)Nc2c(C(C)C)cccc2C(C)C)s1 | > 200 µM | > 200 µM | 
55 | S=C(NC1CCCCC1)SSSSC(=S)NC1CCCCC1 | > 91.2 µM | 33.1 µM | 
56 | COc1ccc(C)cc1-c1cc(Sc2ccccc2)c(-c2cc(C)ccc2OC)o1 | > 53.7 µM | > 53.7 µM | 
57 | c1ccc2c(c1)SC1=C(SC(=C3SC4=C(S3)Sc3ccccc3S4)S1)S2 | > 100 µM | > 100 µM | 
58 | Cc1ccc(NC(=O)/C(CC(=O)c2c[n+](=O)c3ccccc3n2O)=N\NC(=O)C[n+]2ccccc2)cc1 | > 43.7 µM | > 43.7 µM | 
59 | O=C1OC2(CCCCC2)c2ccccc21 | > 339 µM | 186 µM | 
60 | O=C1c2c(c3c4ccccc4[nH]c3c3[nH]c4ccccc4c23)C(=O)N1Cc1ccccc1 | > 148 µM | 10.2 µM | 
61 | S=c1cc(S)c(=S)[nH][nH]1 | > 63.1 µM | 19.5 µM | 
62 | O=C1[C@H]2CCCC[C@H]2C(=O)N1N1C(=O)[C@H]2CCCC[C@H]2C1=O |  |  | inactive
63 | CC1OC(n2ncc(=O)[nH]c2=O)C=CC1=O (stereo not drawn) | > 1120 µM | 10 µM and 6.92 µM | 
64 | O=C1Nc2ccccc2Nc2nc3cccccc-3c21 | > 100 µM | > 100 µM | 
65 | c1ccc2nc3c(nc2c1)sc1nc2ccccc2n13 | > 200 µM | > 200 µM | 
